{"source": "patent US20120015039A1", "about": "“SUSTAINED RELEASE OF NUTRIENTS IN VIVO” (New World Pharmaceuticals, LLC, priority 2007, published 2012)", "origin": "cited, not measured here", "key": {"[1]": {"tested_on": "Na/K ATPase"}, "[2]": {"tested_on": "mice", "conditions": "mouse, in vivo, iv"}}, "data": [{"compound": "[O]=[V]([O-])([O-])[O-]", "note": "[vanadate]", "values": [{"measurement": "concentration at which formation of EP is inhibited", "setting": "[1]", "value": "less than 1 micromolar"}]}, {"compound": "COC(=O)C1=CO[C@@H](O)[C@@H]2C(CO)=CC[C@H]12", "note": "[Genipin]", "values": [{"measurement": "LD50", "setting": "[2]", "value": 382, "unit": "mg/kg"}]}]}
